# Test results taken from patent publication US20090281129A1, “CDKI PATHWAY INHIBITORS AND USES THEREOF” (Senex Biotechnology, Inc., priority 2006, published 2009).
# “Also recorded” adds a separate entry of the source.
# Columns and labels:
# Assay type in all cases: cell-based
# [1] = system: normal human WI-38 fibroblasts; assay: Doxorubicin-induced senescent phenotype (SA-β-gal) in WI-38 fibroblasts; settings: senescence induced by 200 nM doxorubicin
# Procedure: We have correlated the ability of SNX2-class compounds to inhibit the induction of CDKI-responsive genes with their effect on the senescent phenotype, induced in normal human WI-38 fibroblasts by treatment with 200 nM doxorubicin.
# [2] = system: HT1080 p21-9 cells co-cultured with C8 mouse fibroblast line; assay: Paracrine antiapoptotic activity of p21-expressing HT1080 p21-9 cells, survival of C8 cells in low-serum media; settings: p21 induction for three days in presence of compound; C8 survival after 3 days in 0.5% serum, luciferase assay
# Source text: We have also tested if SNX2-class compounds can inhibit paracrine tumor-promoting activities of CDKI-expressing cells. In the assay shown in FIG. 12, HT1080 p21-9 cells were either untreated or treated with p21-inducing IPTG, alone or in the presence of three SNX2-class compounds (SNX2, SNX14 and SNX38). After three days, cells were trypsinized, washed to remove residual compounds, and 3×10^3 cell aliquots of each sample were mixed (in 6 replicates) with 10^4 cell aliquots of C8 mouse fibroblast line, which is highly susceptible to apoptosis in low-serum media. (To detect C8 cells in co-culture, we had transduced them with a vector expressing firefly luciferase.) The next day after plating the mixtures in 96-well plates (in 10% serum and in the absence of IPTG or compounds), cells were exposed to low-serum (0.5%) media, and the relative number of surviving C8 cells was measured after 3 days by the luciferase assay.
# [3] = molecular target: T1, NFκB (p50 or p65 subunits) (Homo sapiens, UniProt P19838+Q04206); assay: TransAM NFκB p65 / p50 Chemi transcription factor assay (oligonucleotide binding); settings: for TNFα-induced NFκB activity: TNFα-treated cells; for basal NFκB activity: control cells
# T1 construct: endogenous in cells
# T1 sequence (P19838 1-433 limits assumed): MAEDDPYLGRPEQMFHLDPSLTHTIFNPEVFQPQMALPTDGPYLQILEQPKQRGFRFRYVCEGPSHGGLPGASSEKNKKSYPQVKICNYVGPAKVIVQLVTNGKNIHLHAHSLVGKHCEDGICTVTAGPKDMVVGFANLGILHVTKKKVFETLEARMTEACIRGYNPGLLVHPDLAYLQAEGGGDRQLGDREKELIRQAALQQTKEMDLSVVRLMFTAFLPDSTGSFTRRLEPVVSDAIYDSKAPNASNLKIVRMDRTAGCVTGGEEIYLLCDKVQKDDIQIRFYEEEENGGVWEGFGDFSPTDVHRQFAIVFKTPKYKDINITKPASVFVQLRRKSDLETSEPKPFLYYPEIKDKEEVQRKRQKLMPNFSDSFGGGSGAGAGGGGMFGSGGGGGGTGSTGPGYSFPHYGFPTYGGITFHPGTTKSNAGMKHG
# T1 sequence (Q04206 whole entry): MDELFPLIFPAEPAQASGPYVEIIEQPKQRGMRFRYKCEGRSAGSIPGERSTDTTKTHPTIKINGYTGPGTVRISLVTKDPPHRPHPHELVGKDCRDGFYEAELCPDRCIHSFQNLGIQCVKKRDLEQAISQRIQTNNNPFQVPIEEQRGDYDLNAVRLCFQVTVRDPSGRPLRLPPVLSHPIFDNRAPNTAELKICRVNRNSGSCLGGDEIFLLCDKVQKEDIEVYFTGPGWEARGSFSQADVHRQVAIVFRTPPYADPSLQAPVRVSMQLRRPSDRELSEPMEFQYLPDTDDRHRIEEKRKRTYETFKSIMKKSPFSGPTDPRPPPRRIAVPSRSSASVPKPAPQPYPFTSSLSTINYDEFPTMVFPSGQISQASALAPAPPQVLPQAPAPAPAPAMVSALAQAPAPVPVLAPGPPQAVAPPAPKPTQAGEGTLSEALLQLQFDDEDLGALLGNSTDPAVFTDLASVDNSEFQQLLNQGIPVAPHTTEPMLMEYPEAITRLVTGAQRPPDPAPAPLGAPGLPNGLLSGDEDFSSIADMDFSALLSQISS
# Source text: The left set of bars represents cells treated with carrier control, the middle set represents cells treated with SNX2, and the right set represents cells treated with a known inhibitor of NFκB binding (TPCK).
# We also tested if these compounds could act as the inhibitors of NFκB, by measuring cellular levels of p50 or p65 subunits binding oligonucleotides containing NFκB consensus binding site, using ACTIVE MOTIF TransAM™ NFκB p65 Chemi and NFκB p50 Chemi Transcription Factor Assay Kits.
# [4] = system: HT1080 p21-9 cells; assay: FACS analysis of DNA content (cell cycle distribution) in HT1080 p21-9 cells; settings: 18 hrs; for increase in the G1 fraction relative to cells treated with IPTG alone: 20 μM compound added simultaneously with 50 μM IPTG; for decrease in the G2 fraction of IPTG-treated cells: 20 μM compound with 50 μM IPTG; for increase in the G1 fraction: 20 μM compound, in the absence of IPTG
# Procedure: We have analyzed the effect of SNX2-class compounds on cell cycle distribution of p21-arrested HT1080 p21-9 cells. Upon p21 induction, these cells are known to arrest both in G1 and in G2 (Chang et al., Oncogene 19, 2165-2170), which is illustrated in FIG. 9 by a reduction in the S-phase but not in the G1 or G2 fractions of cells treated with 50 μM IPTG for 18 hrs, relative to IPTG-untreated cells (as determined by FACS analysis of DNA content in DAPI-stained cells). 20 μM concentrations of SNX2 or SNX14 produce a small increase in the G1 fraction in the absence of IPTG (4% increase with SNX2 and 5% increase with SNX14) (FIG. 9). However, when SNX2 and SNX14 were added simultaneously with IPTG, they produced a much greater increase in the G1 fraction relative to cells treated with IPTG alone (19% increase with SNX2 and 22% increase with SNX14) (FIG. 9).
# [5] = system: HT1080 p27-2 cells; assay: FACS cell cycle analysis in HT1080 p27-2 cells with IPTG-inducible p27; settings: 20 μM compound, 24-hour treatment
# Procedure: IPTG induces dose-dependent increase in the G1 fraction with a corresponding decrease in S and G2/M. The doses of IPTG used in this experiment induce G1 arrest at levels that are lower than the maximal levels that are produced by 50-100 μM IPTG, where >80% of cells are in G1.
# [6] = system: CDKI-responsive promoter of cellular NK4 gene; assay: NK4-luciferase reporter in HT1080 p21-9 cells, prevention and reversal of p21-induced transcription; settings: for induction of NK4-luciferase by p21 (reversal): compound added after two days of IPTG treatment; for induction of NK4-luciferase by p21: compound added simultaneously with IPTG
# Procedure: The compounds show pronounced dose-dependent inhibition of transcription by p21, but they have only a marginal effect on the promoter function when p21 is not induced. […] In this experiment, HT1080 p21-9 cells that express firefly luciferase from a CDKI-responsive promoter of cellular NK4 gene were cultured with IPTG for two days, which is sufficient for near-maximal induction of NK4.
Structure (SMILES),expression of senescence marker SA-β-gal [1],morphological changes associated with cell senescence [1],p21-induced increase of C8 cell survival (paracrine antiapoptotic activity) [2],TNFα-induced NFκB activity [3],basal NFκB activity [3],binding of NFκB proteins p50 or p65 to double-stranded DNA oligonucleotide comprising NFκB binding site ([3]; control or TNFα-treated cells),increase in the G1 fraction relative to cells treated with IPTG alone [4] [%],decrease in the G2 fraction of IPTG-treated cells [4] [%],increase in the G1 fraction [4] [%],effect on sub-maximal G1 arrest induced by IPTG (p27) [5],induction of NK4-luciferase by p21 (reversal) [6],induction of NK4-luciferase by p21 [6]
CCCNc1ncnc2ccc(Br)cc12 [SNX2],block this phenotype,diminish,significantly diminished,no significant effect,no significant effect,does not inhibit,19,6,4,,,
CC(C)Nc1ncnc2ccc(I)cc12 [SNX14],block this phenotype,diminish,significantly diminished; also recorded: strongest effect,,,,22,7,5,strongly augmented,,
COCCCNc1ncnc2ccc(I)cc12 [SNX38],,,significantly diminished,,,,,,,,reverses; also recorded: strongly decreased,prevents; also recorded: strongly decreased
Cc1c(Cl)cccc1NC(=O)CCN1CCN(Cc2ccccc2)CC1 [SNX63],,,,,,,,,,,not two days later,inhibited transcription
"Cc1ccc(S(=O)(=O)N[C@@H](Cc2ccccc2)C(=O)CCl)cc1 [TPCK, reference compound]",,,,completely blocks,completely blocks,,,,,,,
